Source: ChEMBL document CHEMBL1201862, “PubChem BioAssay data set” (2004)
The source made the active and inactive calls. For most assays here, no stated cut-off is given here; in the data, actives have a measured EC50 and inactives only a lower limit.

Tests used:
[1] = biological target: Neuropeptides B/W receptor type 1 (Homo sapiens, UniProt P48145); test: Fluorescence-based dose response cell-based high throughput screening assay to identify antagonists of the G-protein coupled receptor 7 (GPR7). [Related pubchem assays: 1952 (Screening assay (GPR7 antagonists).), 1880 (Summary AID.)]; format: functional
Neuropeptides B/W receptor type 1, sequence (P48145 whole entry): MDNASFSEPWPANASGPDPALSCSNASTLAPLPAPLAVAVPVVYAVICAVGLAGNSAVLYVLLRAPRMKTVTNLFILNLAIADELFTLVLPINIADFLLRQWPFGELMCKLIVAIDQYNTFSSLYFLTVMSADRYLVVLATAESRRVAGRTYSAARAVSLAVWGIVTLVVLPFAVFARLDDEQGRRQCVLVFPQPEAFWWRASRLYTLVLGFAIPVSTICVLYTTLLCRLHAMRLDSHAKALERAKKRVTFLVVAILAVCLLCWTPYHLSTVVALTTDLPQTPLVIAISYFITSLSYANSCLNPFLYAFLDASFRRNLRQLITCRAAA

[2] = biological target: Melanin-concentrating hormone receptor 1 (Homo sapiens, UniProt Q99705); test: Fluorescence-based counterscreen for antagonists of the G-protein coupled receptor 7 (GPR7): cell-based high throughput dose response assay to identify antagonists of the melanin-concentrating hormone receptor 1 (MCHR1).; format: functional
Melanin-concentrating hormone receptor 1, sequence (Q99705 whole entry): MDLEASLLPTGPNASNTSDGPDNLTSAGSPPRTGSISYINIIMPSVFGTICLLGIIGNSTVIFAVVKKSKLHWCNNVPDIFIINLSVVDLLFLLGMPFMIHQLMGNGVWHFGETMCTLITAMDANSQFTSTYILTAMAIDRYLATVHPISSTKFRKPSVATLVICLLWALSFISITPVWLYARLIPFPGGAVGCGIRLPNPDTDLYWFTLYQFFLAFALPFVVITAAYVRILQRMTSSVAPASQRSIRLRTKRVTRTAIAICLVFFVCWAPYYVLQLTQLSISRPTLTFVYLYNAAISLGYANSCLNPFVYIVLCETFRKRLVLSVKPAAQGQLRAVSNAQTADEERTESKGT

[3] = biological target: DNA dC->dU-editing enzyme APOBEC-3A (Homo sapiens, UniProt P31941); test: Dose Response confirmation of small molecule APOBEC3A DNA Deaminase Inhibitors via a fluorescence-based single-stranded DNA deaminase assay. [Related pubchem assays (depositor defined):AID493011, AID493024]; format: functional
DNA dC->dU-editing enzyme APOBEC-3A, sequence (P31941 whole entry): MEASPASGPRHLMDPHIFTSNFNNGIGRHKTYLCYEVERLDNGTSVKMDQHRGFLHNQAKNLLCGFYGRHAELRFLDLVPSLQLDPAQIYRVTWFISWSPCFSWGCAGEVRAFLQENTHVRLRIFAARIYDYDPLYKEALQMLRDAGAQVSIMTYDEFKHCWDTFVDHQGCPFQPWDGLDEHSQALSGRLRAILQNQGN

[4] = biological target: DNA dC->dU-editing enzyme APOBEC-3G (Homo sapiens, UniProt Q9HC16); format: functional;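 further: Dose-response counterscreen measuring inhibition of APOBEC3G DNA deaminase activity, run while confirming APOBEC3A inhibitors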
DNA dC->dU-editing enzyme APOBEC-3G, sequence (Q9HC16 whole entry): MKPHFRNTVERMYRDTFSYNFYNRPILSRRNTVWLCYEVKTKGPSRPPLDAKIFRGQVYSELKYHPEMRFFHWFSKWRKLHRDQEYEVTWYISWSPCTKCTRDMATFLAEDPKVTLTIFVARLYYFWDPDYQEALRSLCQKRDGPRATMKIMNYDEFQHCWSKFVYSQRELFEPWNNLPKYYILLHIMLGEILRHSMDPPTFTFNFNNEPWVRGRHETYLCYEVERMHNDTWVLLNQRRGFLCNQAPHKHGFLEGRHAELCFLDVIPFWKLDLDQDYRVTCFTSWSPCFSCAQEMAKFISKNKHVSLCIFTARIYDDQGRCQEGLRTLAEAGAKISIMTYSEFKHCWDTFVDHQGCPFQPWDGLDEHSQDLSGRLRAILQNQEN

[5] = inhibitors of firefly luciferase expression or activity, dose response, H4 neuroglioma cells, luminescence (AID 1990); format: functional, cell-based
[6] = biological target: T1, Luciferin 4-monooxygenase (Photinus pyralis, UniProt P08659); test: Counter Screen for Luciferase-based Assay Positives. [Related pubchem assays: 620, 618, 411 ]
T1 sequence (P08659 whole entry): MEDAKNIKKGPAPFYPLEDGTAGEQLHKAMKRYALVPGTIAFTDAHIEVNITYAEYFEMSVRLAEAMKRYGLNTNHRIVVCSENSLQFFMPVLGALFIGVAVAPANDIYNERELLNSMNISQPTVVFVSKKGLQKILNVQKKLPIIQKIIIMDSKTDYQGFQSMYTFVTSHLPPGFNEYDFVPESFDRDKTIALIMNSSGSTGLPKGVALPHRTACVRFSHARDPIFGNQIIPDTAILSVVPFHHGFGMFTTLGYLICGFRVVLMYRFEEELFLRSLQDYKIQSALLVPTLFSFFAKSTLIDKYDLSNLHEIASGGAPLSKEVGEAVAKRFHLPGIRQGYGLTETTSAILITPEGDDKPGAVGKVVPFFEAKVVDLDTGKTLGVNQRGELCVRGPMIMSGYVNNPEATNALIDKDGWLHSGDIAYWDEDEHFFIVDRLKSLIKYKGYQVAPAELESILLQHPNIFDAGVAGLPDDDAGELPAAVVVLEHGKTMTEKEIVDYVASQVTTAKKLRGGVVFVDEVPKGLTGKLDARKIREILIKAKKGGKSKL

[7] = cells; format: functional, cell-based
[8] = Luminescence Cell-Based Dose Response HTS to Identify Inhibitors of 5'UTR Stem-Loop Driven Prion Protein mRNA Translation in H4 Neuroglioblastoma Cells. [Related pubchem assays: 1827 (Project Summary), 1813 (Primary HTS)]; format: functional
[9] = biological target: T2, Heat shock factor protein 1 (Mus musculus, UniProt P38532); test: inhibition of MG132-induced HSE-luciferase signal, confirmation, cell-based, NIH3T3, luminescence, dose retest (AID 2382); format: functional;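 further: NIH3T3 fibroblasts with HSF1-driven luciferase reporter stressed by proteasome inhibitor MG132; luminescence from HSF1-driven luciferase expression after 8 hours of MG132 stress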
T2 sequence (P38532 whole entry): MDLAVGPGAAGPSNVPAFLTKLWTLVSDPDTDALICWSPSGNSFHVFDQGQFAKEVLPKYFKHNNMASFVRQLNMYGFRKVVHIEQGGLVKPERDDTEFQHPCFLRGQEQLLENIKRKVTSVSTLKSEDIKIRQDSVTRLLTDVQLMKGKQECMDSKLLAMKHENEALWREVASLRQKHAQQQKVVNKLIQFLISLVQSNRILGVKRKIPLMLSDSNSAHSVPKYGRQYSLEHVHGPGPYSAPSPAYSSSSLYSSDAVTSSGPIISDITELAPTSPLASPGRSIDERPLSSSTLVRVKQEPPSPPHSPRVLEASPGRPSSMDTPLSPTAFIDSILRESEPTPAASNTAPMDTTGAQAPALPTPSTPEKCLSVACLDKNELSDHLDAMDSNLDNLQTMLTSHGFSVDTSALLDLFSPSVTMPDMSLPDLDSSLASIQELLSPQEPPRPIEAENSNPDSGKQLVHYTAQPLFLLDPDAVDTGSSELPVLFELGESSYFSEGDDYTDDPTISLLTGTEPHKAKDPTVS

[10] = inhibitors of SNCA 5'UTR-driven reporter translation, confirmation, H4 neuroglioma cells, luminescence (AID 1988); format: functional, cell-based
[11] = biological target: T1, Luciferin 4-monooxygenase; test: firefly luciferase enzyme inhibitors, dose response, biochemical, luminescence (AID 1891)
[12] = Luminescence Cell-Based Dose Confirmation HTS to Identify Inhibitors of Platelet Dense Granule Release. [Related pubchem assays: 1663 (Primary HTS), 1678 (Summary of Project)]; format: functional
[13] = test system: HT-1080; test: cytotoxicity in HT1080 fibrosarcoma cells, cell-based, fluorescence readout (AID 620); format: functional; details: Homo sapiens
[14] = inhibitors of SNCA 5'UTR-driven translation, confirmation, luminescence, H4 neuroglioblastoma cells, dose confirmation (AID 2454); format: functional, cell-based;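 further: H4 neuroglioblastoma cells carrying an alpha-synuclein 5'UTR luciferase reporter; potency for inhibition of the luciferase signal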
[15] = biological target: T3, Microphthalmia-associated transcription factor (Homo sapiens, UniProt O75030); test: TRPM1 promoter luciferase signal decrease, dose response, MITF inhibitor project, cell-based, SK-MEL-5, cherry-picked, set 3 (AID 493073); format: functional
T3 sequence (O75030 whole entry): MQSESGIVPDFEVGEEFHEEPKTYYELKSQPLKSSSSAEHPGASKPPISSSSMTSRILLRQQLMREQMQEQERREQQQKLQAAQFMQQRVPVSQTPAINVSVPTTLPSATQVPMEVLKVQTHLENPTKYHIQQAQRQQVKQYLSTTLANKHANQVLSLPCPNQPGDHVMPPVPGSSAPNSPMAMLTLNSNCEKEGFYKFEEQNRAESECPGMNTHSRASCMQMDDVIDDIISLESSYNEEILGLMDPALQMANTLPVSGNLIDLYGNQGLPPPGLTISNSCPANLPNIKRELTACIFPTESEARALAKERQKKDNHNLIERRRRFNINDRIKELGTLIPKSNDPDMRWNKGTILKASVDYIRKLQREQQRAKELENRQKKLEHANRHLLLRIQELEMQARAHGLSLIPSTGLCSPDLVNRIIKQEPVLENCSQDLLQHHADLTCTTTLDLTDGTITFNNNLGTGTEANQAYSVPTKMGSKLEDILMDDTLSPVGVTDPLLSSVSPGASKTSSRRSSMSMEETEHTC

[16] = test system: A-375; test: A375 melanoma cell viability reduction, dose response, counter-screen for MITF modulator project, cherry-pick samples, set 2 (AID 540335); format: functional, cell-based; details: Homo sapiens
[17] = biological target: Protein Rev (Human immunodeficiency virus type 1 group M subtype B (isolate WMJ22)(HIV-1), UniProt P05866); test: HIV-1 Rev-RRE RNA binding disruptors, dose response, biochemical, protein-RNA interaction (AID 842); set-up: species or system Human immunodeficiency virus 1
Protein Rev, sequence (P05866 whole entry): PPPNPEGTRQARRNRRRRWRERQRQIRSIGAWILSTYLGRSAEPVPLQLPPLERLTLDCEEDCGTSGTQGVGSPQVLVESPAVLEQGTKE

[18] = test system: Streptococcus sp. 'group A'; test: growth inhibition of control SK(-) GAS strain, dose response, counter-screen for streptokinase expression inhibitor project, luminescence, kanamycin, BacTiterGlo, confirmation (AID 1900); format: functional, organism-based
[19] = test system: HEK293; test: Fluorescence-based counterscreen for potentiators or agonists of NPY-Y1: cell-based high-throughput dose response assay for inhibitors of cyclic nucleotide gated ion channel (CNGC) activity. In this assay, the parental HEK293 cell line transfected with a cyclic-nucleotide gated ion channel (CNGC)-based cAMP sensor is used to measure inhibition of isoproterenol-induced CNGC …; format: functional; details: Homo sapiens
[20] = test system: Streptococcus; test: Group A Streptococcus viability loss, dose response, counter-screen for streptokinase expression inhibitor project, luminescence, BacTiterGlo (AID 1915); format: functional, organism-based;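 further: potency for reduction of bacterial viability or growth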
[21] = biological target: T4, Alkaline phosphatase, tissue-nonspecific isozyme (Homo sapiens, UniProt P05186)
T4 sequence (P05186 whole entry): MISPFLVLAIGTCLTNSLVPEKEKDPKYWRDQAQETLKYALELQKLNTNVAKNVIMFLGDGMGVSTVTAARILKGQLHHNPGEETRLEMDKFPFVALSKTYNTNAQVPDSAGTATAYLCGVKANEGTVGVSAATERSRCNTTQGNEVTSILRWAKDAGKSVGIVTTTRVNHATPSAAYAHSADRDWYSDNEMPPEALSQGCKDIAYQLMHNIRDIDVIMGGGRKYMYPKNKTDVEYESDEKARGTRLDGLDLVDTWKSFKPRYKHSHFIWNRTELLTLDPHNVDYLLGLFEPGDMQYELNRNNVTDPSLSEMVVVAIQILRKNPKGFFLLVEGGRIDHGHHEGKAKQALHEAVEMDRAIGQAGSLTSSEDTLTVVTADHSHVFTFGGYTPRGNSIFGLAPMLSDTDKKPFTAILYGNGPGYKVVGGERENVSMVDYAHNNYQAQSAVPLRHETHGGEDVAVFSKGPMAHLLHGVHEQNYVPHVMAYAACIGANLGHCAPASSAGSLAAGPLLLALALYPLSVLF

[22] = growth suppression of PTEN-null colon cells, dose response, cell-based, HCT116 PTEN knockout (AID 1047); format: functional;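 further: HCT116 colon tumor cells with PTEN knocked out; cells exposed to compound for 60 hours before readout; potency for loss of cell viability measured by luminescence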
[23] = growth suppression of beta-catenin-knockout colon cells, dose response, cell-based, HCT116, human colon tumor (AID 1045); format: functional;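 further: HCT116 colon tumor cells with beta catenin knocked out; cells exposed to compound for 60 hours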

SMILES: FC(F)(F)c1cccc(C[n+]2c3n(c4ccc(C(F)(F)F)cc42)CCCCC3)c1
- IC50 [1]: 19.7 µM (not active)
- IC50 [2]: 13 µM (not active)
- IC50 [3]: 2.17 µM (active)
- IC50 [4]: 3.21 µM (active)

SMILES: O=C(/C=C\Nc1ccc2c(c1)OCO2)c1ccccn1
- EC50 [5]: 0.649 µM (active)
- EC50 [6]: 23.4 µM (active)
- EC50 [7]: > 12 µM (inconclusive)
- EC50 [8]: < 0.1 µM (active)
- EC50 [9]: 4.62 µM (active)
- EC50 [10]: 0.234 µM (active)
- EC50 [11]: 0.634 µM (active)
- EC50 [12]: 3.3 µM (active)
- EC50 [13]: > 50 µM (not active)
- EC50 [14]: 0.874 µM (active)
- AC50 [15]: 2.08 µM (active)
- AC50 [16]: 41 µM (active)

SMILES: CCOC(=O)c1c(C)n(C)c2ccc(O)c(CN(C)C)c12
- IC50 [17]: > 79.4 µM (not active)

SMILES: CCOc1ccc(NC(S)=NN=C(S)Nc2cccc(C(F)(F)F)c2)cc1
- EC50 [18]: 24.4 µM (active)
- IC50 [19]: > 35.4 µM (not active)
- EC50 [20]: > 150 µM (not active)

SMILES: Cn1c(N/N=C2\CCCc3ccccc32)nc2c1c(=O)n(Cc1ccc(F)cc1)c(=O)n2C
- EC50 [21]: 18.8 µM (active)
- EC50 [22]: 9.86 µM (active)
- EC50 [23]: 10.2 µM (active)
